Measurements published in the supplement of paper PMC10307832.

Legend:
Assay in all cases: relative viability (nuclei count vs DMSO), 5 days (fraction); higher = more cells survive
CX-5461 + Lapatinib = compound: Cc1cnc(CNC(=O)c2c(=O)c3ccc(N4CCCN(C)CC4)nc3n3c2sc2ccccc23)cn1 [CX-5461] + CS(=O)(=O)CCNCc1ccc(-c2ccc3ncnc(Nc4ccc(OCc5cccc(F)c5)c(Cl)c4)c3c2)o1 [Lapatinib] (partner 2 µM)
Method in brief: (§1)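 Relative viability divides the nuclei count in treated wells by that in vehicle wells. Lung cancer cell lines were seeded in 1536-well plates, dosed by pin tool the next day, and fixed and stained after 5 days in one step with final 0.05% Triton X-100, 1% formaldehyde and 1 ug/ml Hoechst. Dosing was a single drug or a fixed anchor-drug dose plus five library-drug doses (not always all listed) in √10 steps, and values are medians of duplicate plates imaged at 4×.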

CX-5461 + Bortezomib = compound: Cc1cnc(CNC(=O)c2c(=O)c3ccc(N4CCCN(C)CC4)nc3n3c2sc2ccccc23)cn1 [CX-5461] + CC(C)C[C@H](NC(=O)[C@H](Cc1ccccc1)NC(=O)c1cnccn1)B(O)O [Bortezomib] (partner 0.002 µM)
Method in brief: as §1

CX-5461 + Tozasertib = compound: Cc1cnc(CNC(=O)c2c(=O)c3ccc(N4CCCN(C)CC4)nc3n3c2sc2ccccc23)cn1 [CX-5461] + Cc1cc(Nc2cc(N3CCN(C)CC3)nc(Sc3ccc(NC(=O)C4CC4)cc3)n2)n[nH]1 [Tozasertib] (partner 0.1 µM)
Method in brief: as §1

CX-5461 + Olaparib = compound: Cc1cnc(CNC(=O)c2c(=O)c3ccc(N4CCCN(C)CC4)nc3n3c2sc2ccccc23)cn1 [CX-5461] + O=C(c1cc(Cc2n[nH]c(=O)c3ccccc23)ccc1F)N1CCN(C(=O)C2CC2)CC1 [Olaparib] (partner 8 µM)
Method in brief: as §1

Row | Cell Line | relative viability (CX-5461 + Lapatinib; first compound 0.01 µM) | relative viability (CX-5461 + Lapatinib; first compound 0.03162 µM) | relative viability (CX-5461 + Lapatinib; first compound 0.3162 µM) | relative viability (CX-5461 + Lapatinib; first compound 1 µM) | relative viability (CX-5461 + Bortezomib; first compound 0.01 µM) | relative viability (CX-5461 + Bortezomib; first compound 0.03162 µM) | relative viability (CX-5461 + Bortezomib; first compound 0.3162 µM) | relative viability (CX-5461 + Bortezomib; first compound 1 µM) | relative viability (CX-5461 + Tozasertib; first compound 0.01 µM) | relative viability (CX-5461 + Tozasertib; first compound 0.03162 µM) | relative viability (CX-5461 + Tozasertib; first compound 0.1 µM) | relative viability (CX-5461 + Tozasertib; first compound 0.3162 µM) | relative viability (CX-5461 + Tozasertib; first compound 1 µM) | relative viability (CX-5461 + Olaparib; first compound 0.01 µM) | relative viability (CX-5461 + Olaparib; first compound 0.03162 µM) | relative viability (CX-5461 + Olaparib; first compound 0.1 µM) | relative viability (CX-5461 + Olaparib; first compound 0.3162 µM) | relative viability (CX-5461 + Olaparib; first compound 1 µM) | relative viability (CX-5461 + Lapatinib; first compound 0.1 µM) | relative viability (CX-5461 + Bortezomib; first compound 0.1 µM)
1 | NCI-H1650 | 0.714 | 0.714 | 0.229 | 0.19 | 0.202 | 0.191 | 0.19 | 0.175 | 0.398 | 0.389 | 0.261 | 0.357 | 0.239 | 0.718 | 0.819 | 0.642 | 0.756 | 0.257 | – | –
2 | BEN | 0.77 | 0.647 | 0.487 | 0.54 | 1.07 | 0.665 | 0.672 | 0.597 | 0.481 | 0.529 | 0.499 | 0.495 | 0.498 | 1.12 | 1.06 | 1.2 | 1.02 | 0.737 | 0.821 | 1.02
3 | EMC-BAC-2 | 0.861 | 1.04 | 0.693 | 0.588 | 1.14 | 1.13 | 1.06 | 0.746 | 0.275 | 0.314 | 0.247 | 0.252 | 0.244 | 0.452 | 0.476 | 0.383 | 0.343 | 0.324 | 0.88 | 1.04
4 | NCI-H358 | 0.389 | 0.447 | 0.267 | 0.306 | – | – | – | – | 0.108 | 0.0952 | 0.117 | 0.103 | 0.0892 | 0.676 | 0.616 | 0.575 | 0.494 | 0.266 | 0.392 | –
5 | NCI-H1299 | 0.945 | 0.975 | 0.982 | 0.866 | 1 | 0.981 | 1.04 | 0.979 | – | – | – | – | – | 0.979 | 0.982 | 0.973 | 1 | 0.891 | 1 | 1.05
6 | EBC-1 | 0.214 | 0.191 | 0.2 | 0.208 | 0.591 | 0.619 | 0.49 | 0.423 | – | – | – | – | – | 0.684 | 0.701 | 0.595 | 0.706 | 0.579 | 0.244 | 0.466
7 | NCI-H2342 | – | – | – | – | – | – | – | – | 0.521 | 0.524 | 0.462 | 0.497 | 0.566 | 0.488 | 0.398 | 0.44 | 0.391 | 0.447 | – | –
8 | NCI-H1792 | 0.919 | 1.08 | 0.85 | 0.788 | 0.935 | 1.16 | 0.965 | 0.848 | – | – | – | – | – | 0.424 | 0.471 | 0.477 | 0.371 | 0.39 | 0.923 | 0.966
9 | ChaGo-K-1 | – | – | – | – | 1.14 | 0.968 | 0.414 | 0.449 | 0.185 | 0.227 | 0.247 | 0.229 | 0.232 | 0.381 | 0.403 | 0.433 | 0.442 | 0.378 | – | 0.647
10 | NCI-H1395 | 0.955 | 0.899 | 0.571 | 0.563 | – | – | – | – | 0.811 | 0.796 | 0.757 | 0.574 | 0.588 | 0.457 | 0.427 | 0.443 | 0.435 | 0.456 | 0.716 | –
11 | NCI-H2170 | 0.305 | 0.261 | 0.207 | 0.296 | – | – | – | – | 0.781 | 0.768 | 0.727 | 0.581 | 0.637 | 0.613 | 0.566 | 0.645 | 0.599 | 0.609 | 0.283 | –
12 | NCI-H1944 | 0.777 | 0.981 | – | 0.655 | – | – | – | – | 0.259 | 0.271 | 0.244 | 0.228 | 0.248 | 0.409 | 0.381 | 0.422 | 0.392 | 0.395 | 0.806 | –
13 | A549 | 0.989 | 1.04 | 0.867 | 0.0911 | – | – | – | – | – | – | – | – | – | 0.487 | 0.418 | 0.31 | 0.0579 | 0.0629 | 0.698 | –
14 | SK-MES-1 | 0.431 | 0.474 | 0.512 | 0.403 | – | – | – | – | 1 | 0.977 | 0.728 | 0.815 | 0.294 | 0.706 | 0.738 | 0.508 | 0.641 | 0.246 | 0.454 | –
15 | NCI-H1563 | 0.889 | 0.852 | 0.683 | 0.477 | 0.894 | 0.788 | 0.742 | 0.499 | – | – | – | – | – | – | – | – | – | – | 0.661 | 0.632
16 | NCI-H1793 | 0.693 | 0.628 | 0.399 | 0.643 | – | – | – | – | 0.281 | 0.332 | 0.426 | – | 0.315 | 1.09 | 1 | 0.879 | 0.937 | 0.792 | 0.819 | –
17 | SW 900 | – | – | – | – | – | – | – | – | 0.555 | 0.525 | 0.544 | 0.609 | 0.537 | 0.785 | 0.872 | – | 0.923 | 1 | – | –
18 | IA-LM | 0.692 | 0.748 | 0.669 | 0.475 | 0.785 | 0.795 | 0.877 | 0.355 | – | – | – | – | – | 0.838 | 0.83 | 0.807 | 0.753 | 0.444 | 0.715 | 0.734
19 | NCI-H1703 | 1.2 | 1.45 | 1.14 | 0.502 | 0.31 | 0.378 | 0.337 | 0.154 | – | – | – | – | – | 0.535 | 0.531 | 0.334 | 0.538 | 0.422 | 1.1 | 0.318
20 | NCI-H441 | – | – | – | – | 0.577 | 0.555 | 0.465 | 0.337 | 0.515 | 0.742 | 0.643 | 0.678 | 0.362 | 0.553 | 0.664 | 0.478 | 0.588 | 0.448 | – | 0.692
21 | LCLC-103H | – | – | – | – | 1.1 | 1.13 | 1.02 | 1.07 | 0.457 | 0.527 | 0.473 | 0.391 | 0.477 | 0.766 | 0.857 | 0.793 | 0.788 | 0.762 | – | 1.11
22 | NCI-H1648 | – | – | – | – | – | – | – | – | – | 0.654 | 0.607 | 0.397 | 0.514 | 1.19 | 0.765 | 0.76 | 0.762 | 1.05 | – | –
